Measured values reported in US6090802A, “1- Methylcarbapenem derivatives” (Sankyo Company, Limited, priority 1995, dated 2000).
≈ marks a conversion by molar mass, not a printed value.

Key:
[1] = system: Staphylococcus aureus 209P; experiment: Antibacterial activity, agar plate dilution method (MIC); type: cell-based; conditions: Microorganism A: Staphylococcus aureus 209P; read-out: Minimal inhibitory concentration
Protocol: Antibacterial activity was measured by the agar plate dilution method, whereby the minimal inhibitory concentration (μg/ml) against various pathogenic bacteria was determined. In the Table, bacteria A, B and C provided for the test are as follows: A: Staphylococcus aureus […]

[2] = system: Escherichia coli NIHJ; experiment: as above; type: cell-based; conditions: Microorganism B: Escherichia coli NIHJ; read-out: Minimal inhibitory concentration
Protocol: Antibacterial activity was measured by the agar plate dilution method, whereby the minimal inhibitory concentration (μg/ml) against various pathogenic bacteria was determined. In the Table, bacteria A, B and C provided for the test are as follows: B: Escherichia coli NIHJ

[3] = system: Pseudomonas aeruginosa 1001; experiment: as above; type: cell-based; conditions: Microorganism C: Pseudomonas aeruginosa 1001; read-out: Minimal inhibitory concentration
Protocol: Antibacterial activity was measured by the agar plate dilution method, whereby the minimal inhibitory concentration (μg/ml) against various pathogenic bacteria was determined. In the Table, bacteria A, B and C provided for the test are as follows: C: Pseudomonas aeruginosa 1001

[4] = in words; background art; cited from earlier work

| SMILES | MIC [1] [µg/mL] | MIC [2] [µg/mL] | MIC [3] [µg/mL] | nephrotoxicity [4] |
| --- | --- | --- | --- | --- |
| C[C@@H](O)[C@H]1C(=O)N2C(C(=O)O)=C(S[C@@H]3CN[C@H](C(=O)N4CC[C@H](NC(=O)[C@@H]5CCCN5)C4)C3)[C@H](C)[C@H]12 [Ex. 1, (1R,5S,6S)-6-(1R)-[1-Hydroxyethyl]-1-methyl-2-[(2S,4S)-2-[(3S)-3-(L-prolylamino)pyrrolidin-1-ylcarbonyl]pyrrolidin-4-ylthio]-1-carbapen-2-em-3-carboxylic acid] | ≤ 0.01 | ≤ 0.01 | 0.1 (≈ 0.192 µM) | – |
| C[C@@H](O)[C@H]1C(=O)N2C(C(=O)O)=C(S[C@@H]3CN[C@H](C(=O)N4CC[C@H](NC(=O)CNC(=N)N)C4)C3)[C@H](C)[C@H]12 [Ex. 8] | ≤ 0.01 | ≤ 0.01 | 0.05 (≈ 0.0955 µM) | – |
| C[C@@H](O)[C@H]1C(=O)N2C(C(=O)O)=C(S[C@@H]3CN[C@H](C(O)CC(=O)N4CC[C@H](N)C4)C3)[C@H](C)[C@H]12 (stereo partly drawn) [Ex. 12, (1R,5S,6S)-2-[(2S,4S)-2-[1-Hydroxy-2-[(3S)-3-aminopyrrolidin-1-ylcarbonyl]ethyl]-pyrrolidin-4-ylthio]-6-[(1R)-1-hydroxyethyl]-1-methyl-1-carbapen-2-em-3-carboxylic acid] | ≤ 0.01 | 0.02 (≈ 0.0427 µM) | 0.2 (≈ 0.427 µM) | – |
| C[C@@H](O)[C@H]1C(=O)N2C(C(=O)O)=C(S[C@@H]3CN[C@H](C(=O)N4CC(NC(=O)CCNC(=N)N)C4)C3)[C@H](C)[C@H]12 [Ex. 17, (1R,5S,6S)-2-[(2S,4S)-2-[3-(3-Guanidinopropanoylamino)azetidin-1-ylcarbonyl]-pyrrolidin-4-ylthio]-6-[(1R)-1-hydroxyethyl]-1-methyl-1-carbapen-2-em-3-carboxylic acid] | ≤ 0.01 | ≤ 0.01 | 0.05 (≈ 0.0955 µM) | – |
| C[C@@H](NC(=N)N)C(=O)N[C@H]1CCN(C(=O)[C@@H]2C[C@H](SC3=C(C(=O)O)N4C(=O)[C@H]([C@@H](C)O)[C@H]4[C@H]3C)CN2)C1 [Ex. 27, (1R,5S,6S)-2-[(2S,4S)-2-[(3S)-3-[(2R)-2-Guanidino-2-methylacetylamino]pyrrolidin-1-ylcarbonyl]pyrrolidin-4-ylthio]-6-[(1R)-1-hydroxyethyl]-1-methyl-1-carbapen-2-em-3-carboxylic acid] | ≤ 0.01 | ≤ 0.01 | 0.05 (≈ 0.093 µM) | – |

More lines, main results first:

| MIC [1] [µg/mL] | MIC [2] [µg/mL] | MIC [3] [µg/mL] | SMILES | nephrotoxicity [4] |
| --- | --- | --- | --- | --- |
| ≤ 0.01 | 0.02 (≈ 0.0427 µM) | 0.4 (≈ 0.854 µM) | C[C@@H](O)[C@H]1C(=O)N2C(C(=O)O)=C(S[C@@H]3CN[C@H](C(O)CC(=O)N[C@H]4CCNC4)C3)[C@H](C)[C@H]12 (stereo partly shown) [Ex. 49] | – |
| ≤ 0.01 | 0.02 (≈ 0.0392 µM) | 0.2 (≈ 0.392 µM) | C[C@@H](O)[C@H]1C(=O)N2C(C(=O)O)=C(S[C@@H]3CN[C@H](C(O)CC(=O)N4CCN(C(=N)N)CC4)C3)[C@H](C)[C@H]12 (stereo partly drawn) [Ex. 51, (1R,5S,6S)-2-[(2S,4S)-2-[2-(4-Guanylpiperazin-1-ylcarbonyl)-1-hydroxyethyl]-pyrrolidin-4-ylthio]-6-[(1R)-1-hydroxyethyl]-1-methyl-1-carbapen-2-em-3-carboxylic acid] | – |
| ≤ 0.01 | 0.02 (≈ 0.0427 µM) | 0.2 (≈ 0.427 µM) | C[C@@H](O)[C@H]1C(=O)N2C(C(=O)O)=C(S[C@@H]3CN[C@H]([C@H](O)CC(=O)N4CC[C@H](N)C4)C3)[C@H](C)[C@H]12 [Ex. 59, (1R,5S,6S)-2-[(2S,4S)-2-[2-[(3S)-3-Aminopyrrolidin-1-ylcarbonyl]-(1R)-1-hydroxyethyl]pyrrolidin-4-ylthio]-6-[(1R)-1-hydroxyethyl]-1-methyl-1-carbapen-2-em-3-carboxylic acid] | – |
| ≤ 0.01 | 0.02 (≈ 0.0427 µM) | 0.4 (≈ 0.854 µM) | C[C@@H](O)[C@H]1C(=O)N2C(C(=O)O)=C(S[C@@H]3CN[C@H]([C@@H](O)CC(=O)N4CC[C@H](N)C4)C3)[C@H](C)[C@H]12 [Ex. 60, (1R,5S,6S)-2-[(2S,4S)-2-[2-[(3S)-3-Aminopyrrolidin-1-ylcarbonyl]-(1S)-1-hydroxyethyl]pyrrolidin-4-ylthio]-6-[(1R)-1-hydroxyethyl]-1-methyl-1-carbapen-2-em-3-carboxylic acid] | – |
| ≤ 0.01 | 0.05 (≈ 0.167 µM) | 3.1 (≈ 10.4 µM) | C[C@@H](O)[C@H]1C(=O)N2C(C(=O)O)=C(SCCN=CN)C[C@H]12 [Imipenem, imipenem, reference compound] | exhibits nephrotoxicity |
